Data reported in ChEMBL document CHEMBL5143547, “Antimycobacterial and anti-inflammatory activities of thiourea derivatives focusing on treatment approaches for severe pulmonary tuberculosis” (Bioorg Med Chem, 2022).
The source made the active and inactive calls. No cut-off for these calls is given here.

Key:
[1] = Selectivity index, ratio of CC50 for cytotoxicity against LPS-stimulated mouse RAW264.7 cells to MIC50 for antitubercular activity against Mycobacterium tuberculosis H37Rv; format: toxicity, cell-based; details: LPS-stimulated RAW264.7 cells, read-out: Selectivity Index
RAW264.7 [2] = assay: Inhibition of NO production in mouse RAW264.7 cells incubated for 24 hrs by Griess reagent based analysis; format: functional, cell-based; details: RAW264.7, 24 h
[3] = system: Mycobacterium tuberculosis; assay: Antitubercular activity against Mycobacterium tuberculosis H37Rv assessed as reduction in microbial growth after 5 days by MTT assay; format: functional; details: 120 h, time 5 day
[4] = Cytotoxicity against LPS-stimulated mouse RAW264.7 cells after 24 hrs by MTT assay; format: toxicity, cell-based; details: LPS-stimulated RAW264.7 cells
[5] = system: Mycobacterium tuberculosis; assay: Antitubercular activity against Mycobacterium tuberculosis M299 assessed as reduction in microbial growth after 5 days by MTT assay; format: functional, organism-based; details: M299, 120 h
[6] = system: Mycobacterium tuberculosis; assay: Antitubercular activity against Mycobacterium tuberculosis H37Rv infected in mouse RAW264.7 cells assessed as reduction in microbial growth after 4 days followed by cell lysis and measured after 21 days; format: functional; details: 96 h, time 4 day
RAW264.7 [7] = assay: Anti-inflammatory activity against LPS-stimulated mouse RAW264.7 cells assessed as reduction in IL1beta protein expression level after 24 hrs by ELISA; format: functional, cell-based; details: RAW264.7, 24 h
[8] = Selectivity index, ratio of CC50 for cytotoxicity against LPS-stimulated mouse RAW264.7 cells to MIC50 for antitubercular activity against Mycobacterium tuberculosis M299; format: toxicity, cell-based; details: LPS-stimulated RAW264.7 cells, read-out: Selectivity Index
[9] = system: Mycobacterium tuberculosis; assay: Antitubercular activity against Mycobacterium tuberculosis M299 infected in mouse RAW264.7 cells assessed as reduction in intracellular microbial growth after 4 days followed by cell lysis and measured after 21 days; format: functional; details: M299, 96 h, time 4 day
RAW264.7 [10] = assay: Anti-inflammatory activity against LPS-stimulated mouse RAW264.7 cells assessed as reduction in TNFalpha protein expression level after 24 hrs by ELISA; format: functional, cell-based; details: RAW264.7, 24 h
RAW264.7 [11] = assay: Anti-inflammatory activity against LPS-stimulated mouse RAW264.7 cells assessed as reduction in iNOS protein expression level at 100 uM after 24 hrs by immunoblot analysis relative to control; format: functional
RAW264.7 [12] = assay: Anti-inflammatory activity against LPS-stimulated mouse RAW264.7 cells assessed as reduction in TNFalpha protein expression level at 12.5 uM after 24 hrs by ELISA; format: functional, cell-based
RAW264.7 [13] = assay: Anti-inflammatory activity against LPS-stimulated mouse RAW264.7 cells assessed as reduction in iNOS protein expression level at 50 uM after 24 hrs by immunoblot analysis; format: functional, cell-based

Structure (SMILES) | selectivity ratio [1] | IC50 (RAW264.7 [2]) | MIC50 [3] | CC50 at 24 h [4] | IC50 [5] | MIC50 [6] | IC50 (RAW264.7 [7]) | selectivity ratio [8] | MIC50 [9] | IC50 (RAW264.7 [10]) | inhibition at 100 µM (RAW264.7 [11]) | inhibition (RAW264.7 [12]) | inhibition (RAW264.7 [13])
S=C(NCc1ccccc1)N1CCN(c2ncccn2)CC1 | 2.9 | ≥ 200 µM | 17.8 µM | 50.9 µM | – | – | – | – | – | – | – | – | –
S=C(NCc1ccccc1)Nc1ccccn1 | > 1.1 | ≥ 200 µM | 17.7 µM | ≥ 200 µM | – | – | – | – | – | – | – | – | –
OCCN(CCO)C(=S)Nc1ccccc1 | > 1 | 50.7 µM | ≥ 200 µM | ≥ 200 µM | – | – | – | – | – | – | – | – | –
COc1cc(NC(=S)N2CCN(c3ccc(O)cc3)CC2)cc(OC)c1OC | 0.2 | ≥ 200 µM | 80.9 µM | 17.3 µM | – | – | – | – | – | – | – | – | –
CO[C@H]1/C=C/O[C@@]2(C)Oc3c(C)c(O)c4c(O)c(c(/C=N/N5CCN(C)CC5)c(O)c4c3C2=O)NC(=O)/C(C)=C\C=C\[C@H](C)[C@H](O)[C@@H](C)[C@@H](O)[C@@H](C)[C@H](OC(C)=O)[C@@H]1C [RIFAMPIN] | – | – | 0.2 µM | – | 1.2 µM | – | – | – | – | – | – | – | –
Oc1ccc(N2CCN(C(=S)Nc3ccccc3)CC2)cc1 | 1.2 | 155 µM | 155 µM | 186 µM | – | – | – | – | – | – | – | – | –
CCN(CC)C(S)=NCCc1ccccc1 | 4.9 | ≥ 200 µM | 17.6 µM | 87.3 µM | – | – | – | – | – | – | – | – | –
COc1cc(NC(=S)NCCc2ccccc2)cc(OC)c1OC | > 25 | 4.1 µM | 8.6 µM | ≥ 200 µM | 24.8 µM | 7.7 µM | 80.2 µM | ≥ 8.1 | 12.9 µM | 15.3 µM | ≤ 100% | Active | –
S=C(Nc1ccccc1)N1CCN(Cc2ccc3c(c2)OCO3)CC1 | > 8.4 | 116 µM | 23.9 µM | ≥ 200 µM | – | – | – | – | – | – | – | – | –
S=C(Nc1ccccc1)Nc1ccc(Br)cc1 | 0.9 | 1.9 µM | 28.9 µM | 27.1 µM | – | – | – | – | – | – | – | – | –
CCCCN1CCN(C(=S)NCc2ccccc2)CC1 | > 1.3 | ≥ 200 µM | 157 µM | ≥ 200 µM | – | – | – | – | – | – | – | – | –
S=C(NCCc1ccccc1)N1CCN(c2nc3ccccc3[nH]2)CC1 | 1.7 | ≥ 200 µM | 20 µM | 33.7 µM | – | – | – | – | – | – | – | – | –
CC(C)c1ccc(NC(=S)NCc2ccccc2)cc1 | 52.5 | 2.4 µM | 2.3 µM | 121 µM | 7.8 µM | 1.7 µM | 55.7 µM | 15.5 | 5.6 µM | 4 µM | ≤ 100% | Active | Active
O=C(O)c1ccc(NC(=S)NCc2ccccc2)cc1O | 33.3 | 8.1 µM | 5.9 µM | 197 µM | 24.7 µM | 10.9 µM | 47.9 µM | 8 | 24.7 µM | 28.4 µM | ≤ 100% | Active | –
N#CNC(=S)NCCc1ccccc1 | 1.9 | 10.1 µM | 33.3 µM | 65.9 µM | – | – | – | – | – | – | – | – | –
CNC(=N)NCCC[C@H](N)C(=O)O [TILARGININE ACETATE] | – | 78.3 µM | – | – | – | – | – | – | – | – | – | – | –
COc1ccc(CN2CCN(C(=S)Nc3ccccc3)CC2)c(OC)c1OC | 2.2 | ≥ 200 µM | 16 µM | 34.9 µM | – | – | – | – | – | – | – | – | –
COc1ccc(NC(=S)NCc2ccccc2)cc1 | 133 | ≥ 200 µM | 7.9 µM | 105 µM | – | – | – | – | – | – | – | – | –
CC(C)NC(=S)NCCc1ccccc1 | > 1.9 | 20.6 µM | 108 µM | ≥ 200 µM | – | – | – | – | – | – | – | – | –
COc1cc(NC(=S)Nc2ccccc2)cc(OC)c1OC | 5.3 | 15.2 µM | 28.9 µM | 154 µM | – | – | – | – | – | – | – | – | –
O=C(C1CCCO1)N1CCN(C(=S)NCc2ccccc2)CC1 (stereo not drawn) | > 8 | ≥ 200 µM | 24.9 µM | ≥ 200 µM | – | – | – | – | – | – | – | – | –
CC(C)NC(=S)NCc1ccccc1 | > 3.5 | ≥ 200 µM | 57.8 µM | ≥ 200 µM | – | – | – | – | – | – | – | – | –
O=C(C1CCCO1)N1CCN(C(=S)Nc2ccccc2)CC1 (stereo not drawn) | > 8.6 | 187 µM | 23.3 µM | ≥ 200 µM | – | – | – | – | – | – | – | – | –
S=C(Nc1ccccc1)N1CCN(c2ncccn2)CC1 | > 1.6 | ≥ 200 µM | 127 µM | ≥ 200 µM | – | – | – | – | – | – | – | – | –

Structure (SMILES) | selectivity ratio [1] | IC50 (RAW264.7 [2]) | MIC50 [3] | CC50 at 24 h [4] | IC50 [5] | MIC50 [6] | IC50 (RAW264.7 [7]) | selectivity ratio [8] | MIC50 [9] | IC50 (RAW264.7 [10]) | inhibition at 100 µM (RAW264.7 [11]) | inhibition (RAW264.7 [12]) | inhibition (RAW264.7 [13])
CCCCN1CCN(C(=S)Nc2ccccc2)CC1 | > 6.4 | ≥ 200 µM | 31.5 µM | ≥ 200 µM | – | – | – | – | – | – | – | – | –
S=C(NCc1ccccc1)N(c1ccccc1)c1ccccc1 | 0.3 | ≥ 200 µM | ≥ 200 µM | 67.6 µM | – | – | – | – | – | – | – | – | –
S=C(NCc1ccccc1)Nc1ccc2c(c1)OCCO2 | > 100 | 13.7 µM | 2 µM | ≥ 200 µM | 11.3 µM | 4.8 µM | 33.2 µM | ≥ 17.7 | 19.4 µM | 20.7 µM | ≤ 100% | Active | –
S=C(NCCc1ccccc1)N1CCOCC1 | > 1 | ≥ 200 µM | ≥ 200 µM | ≥ 200 µM | – | – | – | – | – | – | – | – | –
O=C(NNC(=S)NCc1ccccc1)c1ccncc1 | 71.7 | 7.4 µM | 1.3 µM | 93.2 µM | 6.9 µM | 3.7 µM | ≥ 200 µM | 13.5 | 32 µM | 18.7 µM | ≤ 100% | Active | –
O=C(NNC(=S)NCc1ccccc1)c1ccccc1 | 1.3 | ≥ 200 µM | 33.7 µM | 42.1 µM | – | – | – | – | – | – | – | – | –
S=C(Nc1ccccc1)N1CCN(c2ccccn2)CC1 | > 21.1 | ≥ 200 µM | 9.5 µM | ≥ 200 µM | – | – | – | – | – | – | – | – | –
Oc1cccc(NC(=S)NCc2ccccc2)c1 | > 2.6 | 200 µM | 77.2 µM | ≥ 200 µM | – | – | – | – | – | – | – | – | –
CC(C)Cc1ccc(C(C)C(=O)O)cc1 (stereo not drawn) [IBUPROFEN] | – | – | – | – | – | – | 14.4 µM | – | – | 2.1 µM | – | Active | –
COc1cc(NC(=S)Nc2cc(OC)c(OC)c(OC)c2)cc(OC)c1OC | 0.9 | 31.8 µM | 64.2 µM | 60.6 µM | – | – | – | – | – | – | – | – | –
S=C(NCc1ccccc1)N1CCN(Cc2ccc3c(c2)OCO3)CC1 | 15.9 | 110 µM | 8.5 µM | 136 µM | – | – | – | – | – | – | – | – | –
S=C(Nc1ccccc1)N1CCN(c2ccccc2Cl)CC1 | 0.8 | ≥ 200 µM | 37.3 µM | 30.5 µM | – | – | – | – | – | – | – | – | –
S=C(NCCc1ccccc1)N1CCN(c2ncccn2)CC1 | 1.2 | ≥ 200 µM | 34.9 µM | 40.6 µM | – | – | – | – | – | – | – | – | –
OCCNC(=S)Nc1ccccc1 | 1.9 | ≥ 200 µM | 53.3 µM | 105 µM | – | – | – | – | – | – | – | – | –
COc1ccc(NC(S)=Nc2ccccc2)cc1 | 2.7 | ≥ 200 µM | 16.2 µM | 43.3 µM | – | – | – | – | – | – | – | – | –
CCN(CC)C(=S)NCc1ccccc1 | > 4.9 | 15.7 µM | 40.2 µM | ≥ 200 µM | – | – | – | – | – | – | – | – | –
CCCCNC(=S)NCc1ccccc1 | 1.1 | 143 µM | 160 µM | 177 µM | – | – | – | – | – | – | – | – | –
S=C(NCCc1ccccc1)N1CCN(c2ccccn2)CC1 | 3.2 | ≥ 200 µM | 12.6 µM | 40.6 µM | – | – | – | – | – | – | – | – | –
S=C(Nc1ccccc1)Nc1ccccn1 | > 12.2 | 182 µM | 16.4 µM | ≥ 200 µM | – | – | – | – | – | – | – | – | –
S=C(NCc1ccccc1)N1CCN(c2ccccc2)CC1 | 1.9 | 4.1 µM | 27.9 µM | 54.3 µM | – | – | – | – | – | – | – | – | –
COc1cc(NC(=S)NC#N)cc(OC)c1OC | > 1.1 | 3.9 µM | 184 µM | ≥ 200 µM | – | – | – | – | – | – | – | – | –
CN(C[C@H](O)[C@@H](O)[C@H](O)[C@H](O)CO)C(=S)NCc1ccccc1 | 0.8 | ≥ 200 µM | 134 µM | 104 µM | – | – | – | – | – | – | – | – | –
S=C(NCc1ccccc1)Nc1ccc2c(c1)OCO2 | > 1.5 | 24.8 µM | 132 µM | ≥ 200 µM | – | – | – | – | – | – | – | – | –
